For one data set, the system named is A375 cells. The experiment in a line: Cytotoxicity test (8) of released drug. The class given is cell-based. The conditions noted are these: Homo sapiens, A-375, 144 h, read-out: IC50, cytotoxic activity against the A375 cells. As to the method:
A375 cells (ATCC) were cultured in DMEM (GIBCO) containing 10% fetal bovine serum (MOREGATE) (hereinafter, referred to as a medium). The A375 cells were prepared to have a concentration of 4×10^4 cells/mL by using a medium, added at a concentration of 25 μL/well to a 96-well microplate for cell culture (CORNING) charged with […] of a medium, and cultured overnight. On the next day, each test substance diluted into 1000 nM, 200 nM, 40 nM, 8 nM, 1.6 nM, 0.32 nM, and 0.064 nM by using DMSO was added at a concentration of 0.5 μL/well to the microplate. DMSO was added at a concentration of 0.5 μL/well to test substance non-supplemented wells. The volume of the medium in each well was adjusted to 100 μL by the addition of 10 μL/well of a medium, and the cells were cultured under 5% CO2 at 37° C. for 6 days. After the culture, the microplate was taken out from the incubator and left standing at room temperature for 30 minutes. The culture solution was charged with an equal amount of CellTiter-Glo Luminescent Cell Viability Assay (Promega) and stirred. After the microplate was left standing at room temperature for 10 minutes, the amount of light emission was measured by using a plate reader. The IC50 value was calculated according to the following equation: IC50(nM)=antilog((50−d)×(LOG10b−LOG10a)/(d−c)+LOG10b) • a: Concentration a of the test substance • b: Concentration b of the test substance • c: Ratio of live cells supplemented with the test substance having the concentration a • d: Ratio of live cells supplemented with the test substance having the concentration b
The concentrations a and b establish the relation a>b crossing 50% ratio of live cells.
The survival rate of cells was calculated according to the following equation: Survival rate of cells (%)=a/b×100 • a: Average amount of light emission from the test substance-supplemented wells (n=2) • b: Average amount of light emission from the test substance non-supplemented wells (n=10)

The nature of data set [1]: Self-degradation of released drug derivative with aminal structure. The class given is physicochemical. The conditions noted are these: undergoes a self-degradation to release HO—CH2—C(═O)—(NH-DX).
The target of a further data set is T1, topoisomerase I (Homo sapiens, UniProt P11387).
T1 sequence (P11387 1-765): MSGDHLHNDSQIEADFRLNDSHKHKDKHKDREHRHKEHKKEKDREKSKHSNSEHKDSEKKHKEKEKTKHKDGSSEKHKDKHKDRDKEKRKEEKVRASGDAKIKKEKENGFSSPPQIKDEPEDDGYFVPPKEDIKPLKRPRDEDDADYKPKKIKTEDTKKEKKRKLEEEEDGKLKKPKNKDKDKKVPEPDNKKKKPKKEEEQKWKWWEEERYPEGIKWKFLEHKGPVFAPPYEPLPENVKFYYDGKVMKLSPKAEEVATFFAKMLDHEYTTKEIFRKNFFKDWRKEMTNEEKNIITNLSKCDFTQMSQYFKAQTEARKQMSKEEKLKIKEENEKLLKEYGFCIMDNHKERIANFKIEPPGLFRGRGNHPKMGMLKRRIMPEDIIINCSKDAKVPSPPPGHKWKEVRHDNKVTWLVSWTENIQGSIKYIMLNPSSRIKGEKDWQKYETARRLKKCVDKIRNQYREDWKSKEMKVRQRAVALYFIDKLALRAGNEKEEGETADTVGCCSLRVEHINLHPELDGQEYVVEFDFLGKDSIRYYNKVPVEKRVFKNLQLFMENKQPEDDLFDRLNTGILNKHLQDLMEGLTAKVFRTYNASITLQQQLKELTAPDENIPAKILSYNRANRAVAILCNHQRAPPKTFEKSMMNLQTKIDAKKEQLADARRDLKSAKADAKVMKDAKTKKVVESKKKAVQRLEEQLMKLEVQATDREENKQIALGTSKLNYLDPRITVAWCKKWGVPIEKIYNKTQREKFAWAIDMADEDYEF
The following applies: compared with SN-38 and topotecan; cited from earlier work.

The subject of another data set is various cancer cells. The conditions noted are these: against various cancer cells; cited from earlier work.
The test system of the next data set is human tumor. The following applies: human tumor subcutaneously transplanted mouse model; cited from earlier work.
In data set [2] the test system is Human melanoma line A375 cells. The experiment in a line: Antitumor test (1), subcutaneously transplanted A375. In kind it is in vivo, mouse. The conditions noted are these: A375 subcutaneous, female nude mice; 10 mg/kg intravenously at Days 11, 18, and 25; FIG. 17. As to the method:
Mouse: 5- to 6-week-old female BALB/c nude mice (Charles River Laboratories Japan, Inc.) were acclimatized for 4 to 7 days under SPF conditions before use in the experiment. The mice were fed with sterilized solid feed (FR-2, Funabashi Farms Co., Ltd) and given sterilized tap water (prepared by the addition of 5 to 15 ppm sodium hypochlorite solution). Assay and calculation expression: In all studies, the major axis and minor axis of tumor were measured twice a week by using an electronic digital caliper (CD-15C, Mitutoyo Corp.), and the tumor volume (mm^3) was calculated. The calculation expression is as shown below. Tumor volume (mm^3)=1⁄2×Major axis (mm)×[Minor axis (mm)]^2 All of the antibody-drug conjugates were diluted with physiological saline (Otsuka Pharmaceutical Factory, Inc.) and used at a volume of 10 mL/kg for intravenous administration to the tail of each mouse. Human melanoma line A375 cells were purchased from ATCC (American Type Culture Collection). 8×10^6 cells suspended in physiological saline were subcutaneously transplanted to the right abdomen of each female nude mouse (Day 0), and the mice were randomly grouped at Day 11.

For data set [3], the system named is Human non-small cell lung cancer line Calu-6 cells. Briefly: Antitumor test (3), subcutaneously transplanted Calu-6. The class given is in vivo, mouse. The following applies: Calu-6 subcutaneous, female nude mice; 10 mg/kg intravenously at Days 11, 18, and 25 (qw×3); FIG. 19.
Experimental: Assay and calculation expression: In all studies, the major axis and minor axis of tumor were measured twice a week by using an electronic digital caliper (CD-15C, Mitutoyo Corp.), and the tumor volume (mm^3) was calculated. The calculation expression is as shown below. Tumor volume (mm^3)=½×Major axis (mm)×[Minor axis (mm)]^2
Human non-small cell lung cancer line Calu-6 cells were purchased from ATCC (American Type Culture Collection). 5×10^6 cells suspended in physiological saline were subcutaneously transplanted to the right abdomen of each female nude mouse (Day 0), and the mice were randomly grouped at Day 11.

The values below come from patent US12186310B2, “Antibody-drug conjugate” (DAIICHI SANKYO COMPANY, LIMITED, priority 2012, dated 2025).

Where two headings read alike, the source gives them in different places.

On to `CC[C@@]1(O)C(=O)OCc2c1cc1n(c2=O)Cc2c-1nc1cc(F)c(C)c3c1c2[C@@H](NC(=O)CCCN)CC3` [Example (1), 4-Amino-N-[(1S,9S)-9-ethyl-5-fluoro-9-hydroxy-4-methyl-10,13-dioxo-2,3,9,10,13,15-hexahydro-1H,12H-benzo[de]pyrano[3′,4′:6,7]indolizino[1,2-b]quinolin-1-yl]butanamide], for which, in the data set on A375 cells, the IC50 was 10 to 100 nM. For `CC[C@@]1(O)C(=O)OCc2c1cc1n(c2=O)Cc2c-1nc1cc(F)c(C)c3c1c2[C@@H](NC(=O)COCCN)CC3` [Example (42), 2-(2-Aminoethoxy)-N-[(1S,9S)-9-ethyl-5-fluoro-9-hydroxy-4-methyl-10,13-dioxo-2,3,9,10,13,15-hexahydro-1H,12H-benzo[de]pyrano[3′,4′:6,7]indolizino[1,2-b]quinolin-1-yl]acetamide], the half-maximal inhibitory concentration (IC50) in the data set on A375 cells fell in the range of 1 to 10 nM. Consider `CC[C@@]1(O)C(=O)OCc2c1cc1n(c2=O)Cc2c-1nc1cc(F)c(C)c3c1c2[C@@H](NC(=O)CO)CC3` [Example (75), N-[(1S,9S)-9-ethyl-5-fluoro-9-hydroxy-4-methyl-10,13-dioxo-2,3,9,10,13,15-hexahydro-1H,12H-benzo[de]pyrano[3′,4′:6,7]indolizino[1,2-b]quinolin-1-yl]-2-hydroxyacetamide], for which the IC50 in the data set with A375 cells is 0.1 to 1 nM. Take `CCC1(O)C(=O)OCc2c1cc1n(c2=O)Cc2c-1nc1cc(F)c(C)c3c1c2C(NC(=O)COCN)CC3` (stereo not shown) [NH2—CH2—O—CH2—C(═O)—(NH-DX)]: the “stability of the aminal structure in the molecule” value in data set [1] is recorded as “unstable”.

On to `CC[C@@]1(O)C(=O)OCc2c1cc1n(c2=O)Cc2c-1nc1cc(F)c(C)c3c1c2[C@@H](N)CC3` [exatecan, (1S,9S)-1-amino-9-ethyl-5-fluoro-2,3-dihydro-9-hydroxy-4-methyl-1H,12H-benzo[de]pyrano[3′,4′:6,7]indolizino[1,2-b]quinolin-10,13(9H,15H)-dione], for which the IC50 in the data set with A375 cells (released drug, cultured 6 days, CellTiter-Glo) is 0.1 to 1 nM. The “inhibitory activity on topoisomerase I” value on topoisomerase I was “higher than SN-38”. The “in vitro cytocidal activity” value in the data set with various cancer cells is “higher in vitro cytocidal activity”. In the data set with human tumor, the antitumor effect entry is “potent antitumor effect”.

B1: M30-H1-L4P antibody: M30-H1-L4 antibody with the modification of a glycan regulated by defucosylation (antibody, chains of the INN, looked up, V domains shown)
VH: QVQLVQSGAEVKKPGSSVKVSCKASGYTFTNYVMHWVRQAPGQGLEWMGYINPYNDDVKYNEKFKGRVTITADESTSTAYMELSSLRSEDTAVYYCARWGYYGSPLYYFDYWGQGTLVTVSS
VL: EIVLTQSPATLSLSPGERATLSCRASSRLIYMHWYQQKPGQAPRPLIYATSNLASGIPARFSGSGSGTDFTLTISSLEPEDFAVYYCQQWNSNPPTFGQGTKVEIK
modifications: defucosylated
notes: M30-H1-L4 antibody with the modification of a glycan regulated by defucosylation
B1: the tumor volume result in data set [2] and in data set [3] was “progression of tumor growth” throughout.
